The assay deals with HL-60. Briefly: In vitro inhibitory activity against phospholipase D (PLD) activation in HL-60 cells by phospholipase D assay. The class given is cell-based. Particulars: Homo sapiens.

What is called IC50 is the concentration that inhibits the measured activity by half.

As for `O=C1C(O)=CC2(Oc3cccc4cccc(c34)O2)[C@@]23O[C@@]12[C@@H](O)C=C[C@H]3O`, half-maximal inhibition (IC50) required 11 µM.
The same measure for `O=C1C(O)=CC2(Oc3cccc4cccc(c34)O2)[C@@]23O[C@@]12[C@@H](O)CC[C@H]3O`: 12 µM.
